In patent publication US20090305994A1, “Compounds Modulating Vegf Receptor and Uses Thereof” (priority 2005, published 2009):

Columns and labels:
[1] = test system: WKY rats; experiment: Implanted Matrigel model in rats; format: in vivo, rat; conditions: subcutaneous plug, one week
Protocol: Implanted Matrigel Model in rats. Each animals was subcutaneously injected with 1 mL Matrigel Matrix High (18-22 mg/mL; Becton Dickinson, Franklin Lakes, N.J.) containing QK, VEGF 15, VEGF 165 (10^-6 M) or saline solution on the back. One week later, Matrigel plugs were removed and fixed in 4% buffered formaldehyde in PBS for histologic analysis using Masson trichrome staining. The capillary-occupied area per field of view from 15 to 20 fields in tissue sections was measured using a computerized digital camera system (Olympus, Melville, N.Y.) and NIH Image 1.61 (NIH, Bethesda, Md.).
We evaluated the proangiogenic effects of QK in vivo using a subcutaneous injection of Matrigel Matrix High (BD Technologies) […] (VEGF 15 10^-7 M), in anesthetized twelve-week-old WKY rats. After one week the plugs were removed and analyzed in gross morphology and capillaries infiltration by CD31/vWF immunostaining. […] After 14 days animals were anesthetized and hindlimbs blood flow (BF) assessed by digital angiographies counting the TIMI Frame score (TFC) needs to the contrast to arrive at the artery dorsal paw (FIG. 5a). BF was also evaluated by dyed beads dilution through injection in abdominal aorta of yellow beads ([…]) (FIG. 5b). By histology on the ischemic and non ischemic anterior tibial muscle, we evaluated capillary density.

[2] = test system: WKY rats; experiment: Ischemic hindlimb model, digital angiographies and blood flow determination; format: in vivo, rat; conditions: 14 days
[3] = target: T1, KDR (Bos taurus, UniProt A0AAA9SPC9); experiment: KDR activation (immunoprecipitation, phospho-tyrosine western blot) in BAEC; format: cell-based, bovine; conditions: 15 minutes of exposure
T1 construct: we immunoprecipitated total KDR and Flt-1 from BAEC whole extracts; endogenous in cells; host or cells: BAEC (bovine aorta endothelial cells, SV40-immortalized)
T1 sequence (A0AAA9SPC9 20-1356): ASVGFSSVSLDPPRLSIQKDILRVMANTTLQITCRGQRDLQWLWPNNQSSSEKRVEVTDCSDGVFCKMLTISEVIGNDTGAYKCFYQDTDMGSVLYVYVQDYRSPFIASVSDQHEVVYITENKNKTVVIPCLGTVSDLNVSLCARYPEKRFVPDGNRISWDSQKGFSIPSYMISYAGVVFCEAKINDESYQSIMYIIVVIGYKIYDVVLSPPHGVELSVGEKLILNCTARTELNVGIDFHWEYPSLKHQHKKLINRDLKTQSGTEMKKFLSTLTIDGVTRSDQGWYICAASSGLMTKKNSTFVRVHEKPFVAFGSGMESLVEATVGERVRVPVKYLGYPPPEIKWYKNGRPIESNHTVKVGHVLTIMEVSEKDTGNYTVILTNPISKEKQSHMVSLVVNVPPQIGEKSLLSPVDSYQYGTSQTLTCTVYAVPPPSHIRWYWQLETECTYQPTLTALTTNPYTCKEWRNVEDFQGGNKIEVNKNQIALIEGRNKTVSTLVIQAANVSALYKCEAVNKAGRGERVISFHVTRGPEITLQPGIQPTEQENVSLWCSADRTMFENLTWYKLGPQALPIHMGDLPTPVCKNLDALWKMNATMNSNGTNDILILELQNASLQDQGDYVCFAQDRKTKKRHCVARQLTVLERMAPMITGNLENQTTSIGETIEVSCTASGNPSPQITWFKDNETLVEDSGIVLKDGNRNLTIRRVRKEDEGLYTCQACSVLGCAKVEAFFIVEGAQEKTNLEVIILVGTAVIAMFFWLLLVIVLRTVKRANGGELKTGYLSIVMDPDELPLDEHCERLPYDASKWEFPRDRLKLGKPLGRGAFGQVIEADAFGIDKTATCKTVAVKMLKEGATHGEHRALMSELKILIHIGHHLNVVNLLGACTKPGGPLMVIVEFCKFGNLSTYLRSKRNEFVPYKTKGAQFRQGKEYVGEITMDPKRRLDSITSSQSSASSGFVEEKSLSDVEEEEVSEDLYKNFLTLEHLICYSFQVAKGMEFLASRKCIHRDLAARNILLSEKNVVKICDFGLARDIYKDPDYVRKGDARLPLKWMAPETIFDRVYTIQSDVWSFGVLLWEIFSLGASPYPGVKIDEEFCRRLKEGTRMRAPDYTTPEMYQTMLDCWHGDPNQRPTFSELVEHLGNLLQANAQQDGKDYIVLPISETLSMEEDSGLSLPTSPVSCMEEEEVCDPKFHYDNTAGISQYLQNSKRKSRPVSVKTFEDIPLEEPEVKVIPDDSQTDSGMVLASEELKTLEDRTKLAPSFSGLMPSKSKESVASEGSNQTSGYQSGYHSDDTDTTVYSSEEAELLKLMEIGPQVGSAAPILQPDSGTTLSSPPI
Protocol: VEGF receptors binding and activation. a) VEGF competitive binding on BAEC. 1 μg of membrane protein was plated with QK and [^125I]-VEGF (500000 cpm, 10^−10 M). b) KDR activation. After stimulation total KDR was immunoprecipitated from a whole-cell protein extracts and phospho-tyrosine was visualized by a specific antibody, anti-rabbit HRP-conjugated secondary antibody and standard chemiluminescence. c) Flt-1 activation. After stimulation total Flt-1 was immunoprecipitated from a whole-cell protein extracts and phospho-tyrosine was visualized by specific antibody, anti-rabbit HRP-conjugated secondary antibody and standard chemiluminescence.
Western blot. Cells were plated on six-well dishes and serum starved overnight. On the next day, cells were treated with different amount of peptide in absence or in presence of VEGF165 for 15 minutes at 37° C. and then dissolved in RIPA-SDS buffer (50 mM Tris-HCl (pH 7.5), 150 mM NaCl, 1% NP-40, 0.25% deoxycholate, 9.4 mg/50 ml sodium orthovanadate, […]). In some experiments, total KDR and Flt-1 were immunoprecipitated from an equal amount of whole-cell protein extracts using protein A/G agarose beads conjugated with antibodies raised against total KDR or Flt-1 (R&D). Proteins from whole-cell extracts or immunocomplexes were resolved by PAGE and transferred to nitrocellulose. […]

[4] = test system: HUVEC; experiment: Analysis of caspase 3 activity in HUVEC deprived of FBS; format: cell-based, human; conditions: 4 h
Protocol: HUVE cells (1×10^4/cm2) were incubated in medium without FBS, in the absence or presence of VEGF (20 ng/ml) and QK (5 ng/ml), at 37° C. in a 5% CO2 atmosphere. After 4 h, caspase 3 activity was determined. Results are expressed as mean values of triplicates.
HUVE cells (1×10^4/cm2) were incubated in medium without FBS, in the absence or presence of VEGF (20 ng/ml) and the indicated peptides (20 ng/ml), at 37° C. in a 5% CO2 atmosphere. After 4 h, caspase 3 activity was determined. Results are expressed as mean values of triplicates.
(§1) Analysis of caspase 3 activity—Cells (2×104) were lysed in a buffer containing Hepes 50 mM, DTT 1 mM, EDTA 0.1 mM, NP-40 0.1%, CHAPS 0.1% and protein quantitation determined. Protein aliquots (20 μg) were incubated with 20 μM Ac-DEVD-AMC (Pharmingen, San Diego, Calif.) in a buffer containing Hepes 50 mM, DTT 1 mM, EDTA 0.1 mM, NP-40 0.1%, CHAPS 0.1%, at 37° C. for 3 h. Caspase 3 activity was determined in the cytosolic extracts by analysing the release of 7-amino-4-methylcoumarin (AMC) from N-acetyl-DEVD-AMC (Thornberry N A, et al. Nature 1992; 356:768-74); the release of AMC was monitored in a spectrofluorometer with an excitation wavelength of 380 nm and emission wavelength of 440 nm.
as §1, with “356: 768-74);” for “356:768-74);”

Sequence: KLTWQELYQLKYKGI [QK]
- Matrigel plug gross morphology (macroscopic inspection) [1]: contained blood
- peripheral capillaries infiltration of Matrigel plugs ([1]; versus VEGF 15 plugs): greater peripheral capillaries infiltration
- BEADS Ischemic to non ischemic ([2]; dyed beads dilution, muscle ratio, infusion 10^-7 M): 0.98 ± 0.12
- ANGIOGRAPHY Number of TFC ([2]; ischemic hindlimb, chronic intrafemoral artery infusion 10^-7 M): 16 ± 2
- phospho-KDR levels [3]: reduced phospho-KDR below the levels in unstimulated cells
- rescue from apoptosis in presence of VEGF (caspase 3) ([4]; QK 5 ng/ml with VEGF 20 ng/ml): enhanced the response of HUVEC to VEGF
- rescue of HUVEC from apoptosis (caspase 3 activation) ([4]; VEGF 20 ng/ml, QK 5 ng/ml): showed a biological effect similar to VEGF
